From patent publication US11292789B1 (priority 2020, dated 2022)

Columns and labels:
[1] = tested on: 12-day-old cortical cell cultures; assay: Nerve cell protection against excitotoxin damage, MTT assay; type: cell-based; conditions: for Cell viability from excitotoxin-induced neuron toxicity: cortical cell cultures pre-treated 1 hour, then glutamate, AMPA, NMDA, kinate, MTT after one day
Method: Nerve cell protection ability was evaluated using Quinazole and MDPX-V2021 prepared according to Example 1 and MK-801 prepared according to Comparative Example 3.
To evaluate the neuroprotective activity of Quinazole, MDPX-V2021 and MK-801 against damage due to excitotoxin, each of the samples was dissolved in ethanol (final concentration, 0.1%), and a 12-day-old cortical cell cultures were used. The cultures were respectively pre-treated with the samples for 1 hour and then exposed to 20 μM glutamate, 80 μM α-amino-3-hydroxy-5-methyl-4-isoxazolepropionic acid, 40 μM N-Methyl-D-aspartic acid and 200 μM kinate. Next, each of the cultures was additionally cultured in neurobasal medium for one day, and the survival rate of the nerve cells was measured by MTT assay.
MTT tetrazolium (1 mg/mL) was added to neurons grown in 96-well plate, and then cultured at 37° C. for 1 hour. The reaction medium was carefully sucked, and then DMSO was added thereto to dissolve the blue formazan product. The survival rate of the nerve cells was estimated by quantifying an available formazan at 540 nm using a multi-mode plate reader. The test was repeated 3 times, and the cell viability was calculated according to 100×(excitotoxin OD+sample treatment-excitotoxin treatment OD)/(control OD-excitotoxin treatment OD).

[2] = molecular target: α-glucosidase (Saccharomyces cerevisiae, UniProt P53341); type: biochemical; conditions: concentrations 0.01 to 0.25 mg/ml, FIG. 7
α-glucosidase, sequence (P53341 whole entry, looked up): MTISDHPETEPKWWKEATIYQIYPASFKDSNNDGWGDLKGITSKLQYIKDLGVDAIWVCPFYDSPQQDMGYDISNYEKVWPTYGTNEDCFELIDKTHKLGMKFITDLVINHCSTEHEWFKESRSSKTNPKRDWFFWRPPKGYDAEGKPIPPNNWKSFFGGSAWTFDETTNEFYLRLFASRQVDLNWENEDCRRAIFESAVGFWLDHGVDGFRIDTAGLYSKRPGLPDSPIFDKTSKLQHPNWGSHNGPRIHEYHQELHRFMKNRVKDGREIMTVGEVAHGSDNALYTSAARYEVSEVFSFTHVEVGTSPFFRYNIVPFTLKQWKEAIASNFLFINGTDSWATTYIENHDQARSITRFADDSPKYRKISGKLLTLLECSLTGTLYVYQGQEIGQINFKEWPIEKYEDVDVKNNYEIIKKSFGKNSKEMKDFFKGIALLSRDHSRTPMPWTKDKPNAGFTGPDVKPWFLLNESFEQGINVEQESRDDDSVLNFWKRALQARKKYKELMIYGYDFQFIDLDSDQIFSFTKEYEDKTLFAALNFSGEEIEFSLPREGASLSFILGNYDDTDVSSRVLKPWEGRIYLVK
Method: Next, 20 μl of P-NPG (5 mM) was added as a substrate and further incubated at 37° C. for 20 minutes. This reaction was stopped by adding 50 μl of Na2CO3 (0.1 M). […] Each experiment was performed three times. An inhibition rate (%) was evaluated using the following equation (inhibition (%)=[1−(sample/control)]×100).

Row | SMILES | Cell viability from excitotoxin-induced neuron toxicity [1] | inhibitory activity against α-glucosidase (in words) [2] | cell viability compared with Quinazole (in words) ([1]; sample concentration range of 0.1 to 50 μM, FIG. 8)
1 | CC12NC(Cc3ccccc31)c1ccccc12 (centres unmarked) [MK-801, reference compound] | 78.830 ± 0.567% |  | 
2 | COc1ccc(-n2cnc3ccc(OC)cc3c2=O)c(COC(C)(C)C)c1 [MDPX-V2021, 3-{2-[(tert-butoxy)methyl]-4-methoxyphenyl}-6-methoxy-3,4-dihydroquinazolin-4-one] | 84.083 ± 3.482% | has inhibitory activity against α-glucosidase | significantly higher
3 | COc1ccc(-n2cnc3ccc(OC)cc3c2=O)c(CO)c1 [Quinazol A, Dictyoquinazol A, reference compound] | 68.910 ± 1.406% |  | 
